Test results from patent US10561608B2, “Dry powder Vancomycin compositions and associated methods” (SAVARA INC., priority 2011, dated 2020).
Counter-ions that a name gives are not always drawn.

Tests used:
[1] = Reconstituted pH of powder; type: physicochemical; conditions: effect of leucine concentration
Description: In certain embodiments, the dry powder composition may be reconstituted and the resulting reconstituted powder may have a pH greater than 3.0, preferably greater than 3.5 and most preferably greater than 4.0.
In some embodiments, the delivery efficiency of dry powder vancomycin compositions may be improved through the addition of small amounts of leucine (FIG. 2). […] In addition, the addition of leucine results in powders with more physiologically acceptable pH values. See Table 1 below for the effect of leucine concentration on powder water content, particle size and reconstituted pH.

[2] = Single dose plasma pharmacokinetics in healthy volunteers; conditions: human, in vivo, intravenous infusion 250 mg over 60 min, mean
Protocol: FIG. 11 is a graph depicting plasma concentrations as a function of time (semi-log) after a single dose administration of a vancomycin dry powder composition (Lot G-11-026-1) or intravenous administration of vancomycin (inhaled vancomycin dose 16 mg, circle; inhaled vancomycin dose 32 mg, triangle; inhaled vancomycin dose 80 mg, square; Intravenous infusion 250 mg over 60 min, circle with line).
In some embodiments, the dry powder vancomycin compositions of the present disclosure may provide an absolute bioavailability of 40% or more. Absolute bioavailability is calculated as AUC0-inf of vancomycin after the vancomycin composition administration divided by AUC0-inf of vancomycin after intravenous administration and adjusted for dose.
Following a single administration of a dry powder vancomycin composition (Lot […]) in eighteen healthy volunteers, a slow absorption phase followed by an elimination phase were observed. The main pharmacokinetic parameters after single dose administration of the inhaled vancomycin composition and intravenous vancomycin are shown in Table 7. AUC0-t refers to the area under the plasma concentration-time curve to the last measurable time point (24 h) calculated by the linear trapezoidal rule. AUC0-inf refers to the area under the concentration-time curve to infinity. Cmax refers to the maximum blood plasma concentration of vancomycin, and Tmax refers to the amount of time necessary to reach maximum blood plasma levels of vancomycin, and fin, refers to the elimination half-life associated with the terminal slope (Kel) of the semilogarithmic drug concentration-time curve, calculated as 0.693/Kel.

CN[C@H](CC(C)C)C(=O)N[C@H]1C(=O)N[C@@H](CC(N)=O)C(=O)N[C@H]2C(=O)N[C@H]3C(=O)N[C@H](C(=O)N[C@H](C(=O)O)c4cc(O)cc(O)c4-c4cc3ccc4O)[C@H](O)c3ccc(c(Cl)c3)Oc3cc2cc(c3OC2O[C@H](CO)[C@@H](O)[C@H](O)[C@H]2O[C@H]2C[C@](C)(N)[C@H](O)[C@H](C)O2)Oc2ccc(cc2Cl)[C@H]1O (stereo partly drawn) [API, Vancomycin hydrochloride]
Reconstituted pH [1]: 3.0

CN[C@H](CC(C)C)C(=O)N[C@H]1C(=O)N[C@@H](CC(N)=O)C(=O)N[C@H]2C(=O)N[C@H]3C(=O)N[C@H](C(=O)N[C@H](C(=O)O)c4cc(O)cc(O)c4-c4cc3ccc4O)[C@H](O)c3ccc(c(Cl)c3)Oc3cc2cc(c3OC2O[C@H](CO)[C@@H](O)[C@H](O)[C@H]2O[C@H]2C[C@](C)(N)[C@H](O)[C@H](C)O2)Oc2ccc(cc2Cl)[C@H]1O (stereo partly drawn) [IV vancomycin, Vancomycin]
AUC(0-inf) [2]: 44400 ng·h/mL | Cmax [2]: 10000 ng/mL | Tmax [2]: 0.92 h | half-life [2]: 7.23 h | AUC(0-t) ([2]; t = 24 h): 41000 ng·h/mL
